Test results: PubChem BioAssay (NCI)
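96-well plates; 48 h exposure; 5 concentrations. Endpoints by linear interpolation between flanking doses. Not reached: highest tested concentration assigned. At the TGI there is no net growth.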

Experiments:
Assay in all cases: NCI anticancer screen, dose series, 48 h
[1] = system: SK-MEL-5 melanoma
[2] = system: SNB-75 CNS
[3] = system: COLO 205 colon
[4] = system: OVCAR-4 ovarian
[5] = system: T-47D breast
[6] = system: NCI-H226 lung
[7] = system: OVCAR-5 ovarian
[8] = system: MCF7 breast
[9] = system: RPMI-8226 leukemia
[10] = system: KM12 colon
[11] = system: MALME-3M melanoma
[12] = system: A549 NSCLC
[13] = system: TK-10 renal
[14] = system: SR leukemia
[15] = system: SK-MEL-2 melanoma
[16] = system: HOP-62 NSCLC
[17] = system: UACC-62 melanoma
[18] = system: K-562 leukemia
[19] = system: CCRF-CEM leukemia
[20] = system: CAKI-1 renal
[21] = system: A498 renal
[22] = system: ACHN renal
[23] = system: MDA-MB-435
[24] = system: SF-268 CNS
[25] = system: NCI-H23 lung
[26] = system: HCT-15 colon
[27] = system: EKVX NSCLC
[28] = system: HCT-116 colon
[29] = system: BT-549 breast
[30] = system: HS 578T breast
[31] = system: SW-620 colon
[32] = system: RXF 393 renal
[33] = system: IGROV1 ovarian
[34] = system: SK-OV-3 ovarian
[35] = system: NCI-H460 lung
[36] = system: OVCAR-3 ovarian
[37] = system: PC-3 prostate
[38] = system: UO-31 renal
[39] = system: LOX IMVI melanoma
[40] = system: HT29 colon
[41] = system: SNB-19 CNS
[42] = system: NCI/ADR-RES ovarian
[43] = system: SF-295 CNS
[44] = system: U251 CNS
[45] = system: OVCAR-8 ovarian
[46] = system: HOP-92 NSCLC
[47] = system: 786-0 renal
[48] = system: NCI-H522 lung
[49] = system: M14 melanoma
[50] = system: UACC-257 melanoma
[51] = system: SF-539 CNS
[52] = system: MDA-MB-231 breast
[53] = system: MOLT-4 leukemia
[54] = system: SK-MEL-28 melanoma
[55] = system: HL-60(TB) leukemia
[56] = system: HCC-2998 colon
[57] = system: SN12C renal
[58] = system: DU-145 prostate

Measured: TGI

O=C1CCCn2c(nc3ccccc32)N1
not listed: [54] | [55] | [56] | [57] | [58]
> 100 µM: all other assays above

CN(C)c1ccc(-c2[nH]c(=O)c3ccccc3[n+]2C)cc1
not listed: [15] | [20] | [29] | [36] | [37] | [39] | [48]
> 100 µM: all other assays above
